How the values were obtained:
[1] = system: NIH 3T3 cells ectopically expressing EEF1A2; assay: Drug-induced apoptosis in NIH 3T3 cells ectopically expressing EEF1A2; type: cell-based, mouse
Source text: Patients with tumor samples that are positive for EEF1A2 are expected to survive for a shorter period of time as compared to patients with tumor sample negative for EEF1A2. Prognostic information relating to EEF1A2-gene amplification and/or EEF1A2 protein expression can be used to enhance clinical decision-making and to select appropriate treatment regimes. NIH 3T3 cells ectopically expressing EEF1A2 are resistant to the apoptosis-induced by cisplatin and staurosporine. Further, mice lacking EEF1A2 show increased lymphoid apoptosis. Accordingly, it is believed that EEF1A2 modulates the sensitivity of cancer cells to selected treatments.

EEF1A1 mRNA = EEF1A1 mRNA levels after antisense oligonucleotide treatment of human Ramos cells; type: cell-based
Source text: (§1) Antisense inactivation of EEF1A2 was achieved using two EEF1A2-specific phosphorothioated antisense oligonucleotides. Phosphorothioated DNA oligonucleotides were used as these modified oligonucleotides are non-toxic in humans, nuclease resistant, stable in vivo and in vitro, are readily taken up by cells and activate rapid degradation of the mRNA target (Gewirtz et al. Blood 1998 92:712-736; Agrawal et al. Proc. Natl. Acad. Sci. USA 1990 87:1401-1405). However, as will be understood by those of skill in the art upon reading this disclosure, other modifications well known to those skilled in the art can be used.
(§2) Both antisense oligonucleotides decreased EEF1A2 mRNA levels in human Ramos cells. mRNA levels of EEF1A1 were not decreased by administration of these antisense oligonucleotides. A control sequence, GGTTGCTGTGGGCTTGAGT (SEQ ID NO:4) had no effect on mRNA levels of EEF1A2 or EEF1A1 in the human Ramos cells.

EEF1A2 mRNA = EEF1A2 mRNA levels after antisense oligonucleotide treatment of human Ramos cells; type: cell-based
Source text: as §1, §2

Compound	apoptosis induced by the drug [1]	effect on EEF1A1 mRNA levels (EEF1A1 mRNA)	effect on EEF1A2 mRNA levels (EEF1A2 mRNA)
N.N.[Cl][Pt][Cl] [cisplatin]	resistant	–	–
CN[C@@H]1C[C@H]2O[C@@](C)([C@@H]1OC)n1c3ccccc3c3c4c(c5c6ccccc6n2c5c31)C(=O)NC4 [staurosporine]	resistant	–	–
SEQ ID NO:4: control sequence GGTTGCTGTGGGCTTGAGT (listed as DNA, chemistry not given here)	–	no effect	no effect

Reference: patent US20060099586A1, “Eef1a2 for use in the prognosis, diagnosis, and treatment of cancer” (priority 2002, published 2006)
